Experimental data reported in US8865623B2, “Herbicidally active cyclic diones and derivatives thereof, processes for their preparation, compositions, and method of controlling weeds” (Syngenta Limited, priority 2009, dated 2014).

What was measured:
Format in all cases: in vivo
[1] = tested on: Echinochloa crus-galli (ECHCG); test: Post-emergence herbicidal activity, glasshouse pot test; settings: rate 250 g/ha, evaluated after 13 days; for pest or weed control at 250 g/ha: Echinochloa crus-galli, 312 h, read-out: Post-emergence activity ECHCG (100=total damage to plant; 0=no damage to plant)
Summary of the method: (§1)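 Sow seeds in standard soil in pots; grow 1 day (pre-emergence) or 8 days (post-emergence) at 24/16° C, 14 h light, 65% humidity. Spray aqueous solution from acetone/water 50:50 + 0.5% Tween 20 formulation. Grow on, watering twice daily; score damage 0–100 after 13 days.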

Avena fatua (AVEFA) [2] = test: as above; settings: rate 250 g/ha, evaluated after 13 days; for pest or weed control at 250 g/ha: Avena fatua, 312 h, read-out: Post-emergence activity AVEFA (100=total damage to plant; 0=no damage to plant)
Summary of the method: as §1

Lolium perenne (LOLPE) [3] = test: as above; settings: rate 250 g/ha, evaluated after 13 days; for pest or weed control at 250 g/ha: Lolium perenne, 312 h, read-out: Post-emergence activity LOLPE (100=total damage to plant; 0=no damage to plant)
Summary of the method: as §1

[4] = tested on: Alopecurus myosuroides (ALOMY); test: as above; settings: rate 250 g/ha, evaluated after 13 days; for pest or weed control at 250 g/ha: Alopecurus myosuroides, 312 h, read-out: Post-emergence activity ALOMY (100=total damage to plant; 0=no damage to plant)
Summary of the method: as §1

[5] = tested on: Echinochloa crus-galli (ECHCG); test: Pre-emergence herbicidal activity, glasshouse pot test; settings: evaluated after 13 days; for pest or weed control at 250 g/ha: Echinochloa crus-galli, 312 h, Rate 250 g/ha, read-out: Pre-emergence activity ECHCG (100=total damage to plant; 0=no damage to plant)
Summary of the method: as §1

Avena fatua (AVEFA) [6] = test: as above; settings: evaluated after 13 days; for pest or weed control at 250 g/ha: Avena fatua, 312 h, Rate 250 g/ha, read-out: Pre-emergence activity AVEFA (100=total damage to plant; 0=no damage to plant)
Summary of the method: as §1

Lolium perenne (LOLPE) [7] = test: as above; settings: evaluated after 13 days; for pest or weed control at 250 g/ha: Lolium perenne, 312 h, Rate 250 g/ha, read-out: Pre-emergence activity LOLPE (100=total damage to plant; 0=no damage to plant)
Summary of the method: as §1

[8] = tested on: Alopecurus myosuroides (ALOMY); test: as above; settings: evaluated after 13 days; for pest or weed control at 250 g/ha: Alopecurus myosuroides, 312 h, Rate 250 g/ha, read-out: Pre-emergence activity ALOMY (100=total damage to plant; 0=no damage to plant)
Summary of the method: as §1

Structure (SMILES) | pest or weed control at 250 g/ha ([1]; glasshouse) [%] | pest or weed control at 250 g/ha (Avena fatua (AVEFA) [2]; glasshouse) [%] | pest or weed control at 250 g/ha (Lolium perenne (LOLPE) [3]; glasshouse) [%] | pest or weed control at 250 g/ha ([4]; glasshouse) [%] | pest or weed control at 250 g/ha ([5]; pre-emergence spray) [%] | pest or weed control at 250 g/ha (Avena fatua (AVEFA) [6]; pre-emergence spray) [%] | pest or weed control at 250 g/ha (Lolium perenne (LOLPE) [7]; pre-emergence spray) [%] | pest or weed control at 250 g/ha ([8]; pre-emergence spray) [%] | also measured
CCOC(=O)OC1=C(c2cc(Oc3ccc(C#N)cc3F)ccc2CC)C(=O)C(C)(C)OC1(C)C [Example P-5] |  |  |  |  |  |  |  |  | ECHCG damage to plant (100=total damage to plant; 0=no damage to plant) [1]: 100; AVEFA damage to plant (100=total damage to plant; 0=no damage to plant) (Avena fatua (AVEFA) [2]): 70; LOLPE damage to plant (100=total damage to plant; 0=no damage to plant) (Lolium perenne (LOLPE) [3]): 80; ALOMY damage to plant (100=total damage to plant; 0=no damage to plant) [4]: 80; ECHCG damage to plant (100=total damage to plant; 0=no damage to plant) ([5]; pre-emergence, rate 250 g/ha): 100; AVEFA damage to plant (100=total damage to plant; 0=no damage to plant) (Avena fatua (AVEFA) [6]; pre-emergence, rate 250 g/ha): 70; LOLPE damage to plant (100=total damage to plant; 0=no damage to plant) (Lolium perenne (LOLPE) [7]; pre-emergence, rate 250 g/ha): 100; ALOMY damage to plant (100=total damage to plant; 0=no damage to plant) ([8]; pre-emergence, rate 250 g/ha): 100
CCc1ccc(Oc2ccc(F)cc2)cc1C1=C(O)CCCC1=O [Example A-29] | 70 | 0 | 10 | 0 | 40 | 10 | 30 | 0 | 
CCc1ccc(Oc2ccc(Cl)cc2)cc1C1=C(O)[C@@H]2CC[C@](C)(C1=O)C2(C)C (single isomer, unassigned) [Example A-96] | 60 | 20 | 30 | 60 | 90 | 40 | 100 | 70 | 
CCc1ccc(Oc2ccc3cc(Cl)ccc3n2)cc1C1=C(O)[C@@H]2CC[C@](C)(C1=O)C2(C)C [Example A-235] | 100 | 100 | 100 | 90 | 100 | 30 | 70 | 50 | 
CCc1ccc(Oc2ccc(Br)cc2)cc1C1=C(O)CCC(C)(C)C1=O [Example A-113] | 90 | 0 | 40 | 10 | 60 | 30 | 100 | 30 | 
CCc1ccc(Oc2cnc3cc(F)ccc3n2)cc1C1=C(O)CC2(CCOCC2)CC1=O [Example A-311] | 100 | 100 | 100 | 100 | 100 | 100 | 100 | 90 | 
CCc1ccc(Oc2ncc(C)cn2)cc1C1=C(O)C(C)(C)OC(C)(C)C1=O [Example A-123] | 50 | 10 | 30 | 20 | 30 | 0 | 20 | 30 | 
CCc1ccc(Oc2ccc(Br)c(C)c2)cc1C1=C(O)C(C)(C)OC(C)(C)C1=O [Example A-11] | 60 | 20 | 50 | 50 | 0 | 0 | 0 | 0 | 
CCc1ccc(Oc2nc3ccc(OC)cc3s2)cc1C1=C(O)CC2(CCOCC2)CC1=O [Example A-264] | 100 | 90 | 100 | 90 | 100 | 80 | 90 | 90 | 
CC1(C)OC(C)(C)C(O)=C(c2cc(Oc3ccc(Cl)c(F)c3)ccc2C2CC2)C1=O [Example A-347] |  |  |  |  |  |  |  |  | pest or weed control at 250 g/ha [1]: 100%; pest or weed control at 250 g/ha (Avena fatua (AVEFA) [2]): 50%; pest or weed control at 250 g/ha (Lolium perenne (LOLPE) [3]): 100%; pest or weed control at 250 g/ha [4]: 90%; pest or weed control at 250 g/ha ([5]; pre-emergence): 100%; pest or weed control at 250 g/ha (Avena fatua (AVEFA) [6]; pre-emergence): 10%; pest or weed control at 250 g/ha (Lolium perenne (LOLPE) [7]; pre-emergence): 100%; pest or weed control at 250 g/ha ([8]; pre-emergence): 70%
CCc1ccc(Oc2cc(Cl)c3ccccc3n2)cc1C1=C(O)C(C)(C)OC(C)(C)C1=O [Example A-251] | 100 | 30 | 0 | 80 | 100 | 20 | 80 | 40 | 
CCc1ccc(Oc2ncc(Cl)cc2C(F)(F)F)cc1C1=C(O)[C@H]2CC[C@H](C2)C1=O [Example A-346] |  |  |  |  |  |  |  |  | pest or weed control at 250 g/ha [1]: 100%; pest or weed control at 250 g/ha (Avena fatua (AVEFA) [2]): 90%; pest or weed control at 250 g/ha (Lolium perenne (LOLPE) [3]): 90%; pest or weed control at 250 g/ha [4]: 70%; pest or weed control at 250 g/ha ([5]; pre-emergence): 100%; pest or weed control at 250 g/ha (Avena fatua (AVEFA) [6]; pre-emergence): 90%; pest or weed control at 250 g/ha (Lolium perenne (LOLPE) [7]; pre-emergence): 100%; pest or weed control at 250 g/ha ([8]; pre-emergence): 100%
CCc1ccc(Oc2cc(F)c(C#N)c(F)c2)cc1C1=C(O)C(C)(C)OC(C)(C)C1=O [Example A-207] | 100 | 80 | 90 | 80 | 70 | 10 | 60 | 30 | 
CCc1ccc(Oc2ncc(Br)cn2)cc1C1=C(O)C(C)(C)OC(C)(C)C1=O [Example A-109] | 100 | 90 | 90 | 90 | 100 | 70 | 80 | 80 | 
CCc1ccc(Oc2nc3ccc(OC)cc3s2)cc1C1=C(O)CC(C)(C)CC1=O [Example A-300] | 100 | 70 | 60 | 80 | 100 | 0 | 100 | 80 | 
CC1(C)OC(C)(C)C(O)=C(c2cc(Oc3nc4ccc(Cl)cc4s3)ccc2C2CC2)C1=O [Example A-366] |  |  |  |  |  |  |  |  | pest or weed control at 250 g/ha [1]: 100%; pest or weed control at 250 g/ha (Avena fatua (AVEFA) [2]): 80%; pest or weed control at 250 g/ha (Lolium perenne (LOLPE) [3]): 100%; pest or weed control at 250 g/ha [4]: 100%; pest or weed control at 250 g/ha ([5]; pre-emergence): 90%; pest or weed control at 250 g/ha (Avena fatua (AVEFA) [6]; pre-emergence): 30%; pest or weed control at 250 g/ha (Lolium perenne (LOLPE) [7]; pre-emergence): 90%; pest or weed control at 250 g/ha ([8]; pre-emergence): 50%
CCc1ccc(Oc2ccc(C(F)(F)F)c(C#N)c2)cc1C1=C(O)CC(C)(C)CC1=O [Example A-295] | 100 | 60 | 40 | 80 | 70 | 20 | 50 | 50 | 
CCc1ccc(Oc2cnc3ccccc3n2)cc1C1=C(O)C(C)(C)OC(C)(C)C1=O [Example A-161] | 100 | 70 | 90 | 100 | 100 | 50 | 90 | 70 | 
